One experiment has as its system Neutrophil. Description: Inhibition of superoxide production in human neutrophils. Type of experiment: functional, cell-based.
In another experiment the test system is HL-60. Description: Antiproliferative activity against human HL60 cells. Type of experiment: functional, cell-based.

A word on the IC50: it is the point on the concentration scale where inhibition reaches its midpoint. A high value points to a need for much substance. `C=CC(C)(C)c1ccc(O)c(CC=C(C)C)c1`: the IC50 in the experiment with Neutrophil amounted to 29 µM; in the experiment with HL-60 it was 2.7 µM.
Consider `O=C1C2=C(C=CC(C(=O)O)N2)C(=O)C2=C1NCCS2(=O)=O` (stereo not drawn), for which the results for the IC50 in the experiment with Neutrophil and in the experiment on HL-60 were 1.5 µM and 73 µM, respectively.
On to `C=CC(C)(C)c1cc2c(cc1O)C=CC(C)(C)O2`, for which the IC50 in the experiment with Neutrophil worked out at 238 µM; with HL-60, 5.6 µM.
Turning to `C=CC(C)(C)C1=CC(=O)C(CC=C(C)C)=CC1=O`, the IC50 turned out to be 2.1 µM in the experiment with Neutrophil and 0.34 µM in the experiment on HL-60.

The values are drawn from ChEMBL document CHEMBL1141439, “An antiproliferative bis-prenylated quinone from the New Zealand brown alga Perithalia capillaris” (J Nat Prod, 2007).
